Source: US6440443B1, “Microencapsulation formulations of cadusafos” (priority 1998, dated 2002)

Tested on: root-knot nematode (RKN), Meloidogyne incognita
Assay: Root-knot nematode control on tomato, pots infested 48 hours after soil treatment (set 1), gall rating
Format: in vivo
Conditions: rating scale 0-10
Description: Formulations AA to FF, excluding DD, were tested for efficacy and persistence in soil for controlling root-knot nematode (RKN), Meloidogyne incognita, on tomato. A three-week old tomato (Lycopersicon esculentum, var “Rutgers”) was planted in a 10 cm square pot containing a nonsterile 50:50 sand:soil mixture. Ten replicate pots (five replicates for two sets of tests) were prepared for each rate of application of test formulation. Stock dispersions of each of the test formulations were prepared by dispersing a sufficient amount of test material in 100 ml of water to give rates of application of 0.25, 0.5, 1, and 2 kg a.i./ha. Each pot received 10 ml of the appropriate suspension on the surface immediately around the tomato, and a control treatment for each of the two experimental set of pots received only water. Pots were also prepared as above with the same rates of the 100 ME cadusafos formulation and technical cadusafos. The RKN eggs used in the experiment were separated from a gelatinous matrix by vigorously shaking the roots of heavy galled tomato plants for four minutes in a 1% aqueous sodium hypochlorite solution. The resulting egg suspension was rapidly poured through nested 60, 325, and 500 mesh sieves. The eggs were collected on the 500 mesh sieve and gently rinsed with water to remove any excess sodium hypochlorite. The eggs were taken up in water, and the resulting aqueous suspension was appropriately diluted with water to give about 2000 eggs per plant which results in an effective inoculant level of about 1000 infective larvae per pot. The eggs were counted using a dissecting microscope. All the pots were infested with nematodes by pippetting the inoculum into the openings around the roots of the previously treated tomato transplants. Pots infested with nematodes 48 hours after soil treatment, hereafter referred to as “set 1”. Pots for examination of residual activity, hereafter referred to as “set 2”, were treated and maintained in the greenhouse for seven days prior to nematode infestations. Upon nematode infestation, the pots were maintained in the greenhouse for 28 days and monitored for phytotoxicity symptoms. At the conclusion of the 28 day period, the soil was washed away from the tomato plants roots and rated according to the following scheme: […]

CCOP(=O)(SC(C)CC)SC(C)CC (stereo not shown) [Technical]
Mean Root-Knot Gall Rating (infested 48 hours after treatment, rate 0.25 Kg/Ha): 2.4 | Mean Root-Knot Gall Rating (infested 48 hours after treatment, rate 0.5 Kg/Ha): 1.2 | Mean Root-Knot Gall Rating (second printing of Table 7, 48 hours after treatment, rate 0.25 Kg/Ha): 2.4 | Mean Root-Knot Gall Rating (second printing of Table 7, 48 hours after treatment, rate 0.5 Kg/Ha): 1.2
